Earlier results in patent US20080312310A1, “Compounds, Compositions and Methods” (Cytokinetics, Inc., priority 2002, published 2008).

Tested on: A549 cells
Details: data provided by National Cancer Institute, Developmental Therapeutic Program

Structure (SMILES)	GI50
O=c1[nH]cc(F)c(=O)[nH]1 [5-fluorouracil]	1000 nM
CC(=O)O[C@H]1C(=O)[C@@]2(C)[C@H]([C@H](OC(=O)c3ccccc3)[C@]3(O)C[C@H](OC(=O)[C@H](O)[C@@H](NC(=O)c4ccccc4)c4ccccc4)C(C)=C1C3(C)C)[C@]1(OC(C)=O)CO[C@@H]1C[C@@H]2O [paclitaxel]	4 nM
COc1cccc2c1C(=O)c1c(O)c3c(c(O)c1C2=O)C[C@@](O)(C(=O)CO)C[C@@H]3O[C@H]1C[C@H](N)[C@H](O)[C@H](C)O1 [doxorubicin]	63 nM
NC(=O)NO [hydroxyurea]	500000 nM
